One compound from patent US20220265629A1, “TREATMENT OF SYSTOLIC DYSFUNCTION AND HEART FAILURE WITH REDUCED EJECTION FRACTION WITH THE COMPOUND (R)-4-(1-((3-(DIFLUOROMETHYL)-1-METHYL-1H-PYRAZOL-4-YL)SULFONYL)-1-FLUOROETHYL)-N-(ISOXAZOL-3-YL)PIPERIDINE-1-CARBOXAMIDE” (MyoKardia, Inc., priority 2019, published 2022) can be followed below.

The data set relates to healthy volunteers. The data set is described as follows: Food effect cross-over study, healthy volunteers: safety. The class given is in vivo, human. The procedure: ECG was performed as described in Example 1. The following intervals were measured: RR, PR, QRS, and QT. Heart rate (HR) was calculated as 60/(RR×1000) (with RR expressed in msec) and rounded to the nearest integer. Each individual ECG QT value was corrected for HR. The measured QT data was corrected for HR using the Fridericia method (QTcF) as per the following formulae/method (with QT, RR and QTc expressed in ms): […]
The Investigator or designee monitored the continuous ECG telemetry data and correlated the finding(s) with any other clinical findings, study participant's medical history, study participant's clinical status and laboratory data to determine the clinical importance of the finding.
Serum troponin-I concentrations were determined as described in Example 1. Abnormal and/or rising troponin values (as per Investigator's judgment and taking into account potential Baseline troponin elevation) led to the subject being clinically evaluated for possible myocardial ischemia. […] The entire clinical context would be evaluated (e.g., signs, symptoms, new ECG changes, new troponin, and CK-MB abnormalities) and correlated with any other relevant clinical findings, the subject's medical history, and laboratory data to determine the clinical significance of the findings.

Turning to `Cn1cc(S(=O)(=O)[C@@](C)(F)C2CCN(C(=O)Nc3ccon3)CC2)c(C(F)F)n1` [Compound I, (R)-4-(1-((3-(difluoromethyl)-1-methyl-1H-pyrazol-4-yl)sulfonyl)-1-fluoroethyl)-N-(isoxazol-3-yl)piperidine-1-carboxamide], for the setting “200 mg, fasted or fed state”, the troponin-I entry is given as “No increase”. The “abnormal ECG results” value is, setting by setting: (200 mg, fasted state) 3 (30.0%); (200 mg, fed state) 2 (20.0%). The headache is reported as 4 subjects (200 mg, fasted state) and 1 subject (200 mg, fed state). Moreover, the tolerability entry (single dose of 200 mg) is recorded as “well-tolerated”.
